# Results published in ChEMBL document CHEMBL1201862, “PubChem BioAssay data set” (2004).
# Active and inactive are the calls of the source.
# Legend:
# Bcl-2-related protein A1 = target: T1, Bcl-2-related protein A1 (Mus musculus, UniProt Q07440); assay type: functional;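 further: confirmatory dose–response counterscreen on Bfl-1, used to check hits from a UBC13 polyubiquitin inhibitor campaign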
# T1 sequence (Q07440 whole entry): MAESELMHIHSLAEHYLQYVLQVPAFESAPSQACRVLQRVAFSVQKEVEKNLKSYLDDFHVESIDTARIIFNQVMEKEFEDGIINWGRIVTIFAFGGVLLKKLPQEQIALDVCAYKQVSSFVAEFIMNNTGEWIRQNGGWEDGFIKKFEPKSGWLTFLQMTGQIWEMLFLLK
# [1] = target: T2, Ubiquitin-conjugating enzyme E2 N (Homo sapiens, UniProt P61088); assay type: functional
# T2 sequence (P61088 whole entry): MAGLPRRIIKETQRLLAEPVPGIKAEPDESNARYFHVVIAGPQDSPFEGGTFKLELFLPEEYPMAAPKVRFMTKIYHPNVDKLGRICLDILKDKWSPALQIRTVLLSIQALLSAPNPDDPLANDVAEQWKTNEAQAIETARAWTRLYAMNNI
# [2] = target: T2, Ubiquitin-conjugating enzyme E2 N; assay type: functional; remark: listed apart in the source
# HEK293 = test: EBV LMP1 TES2 canonical NF-kB signalling blockers – cell-based, HEK293, luciferase, cherry-pick, dose response (AID 588343); assay type: functional; settings: Homo sapiens
# [3] = Luminescence Cell-Based Dose Response HTS to Identify Activators of Luciferase Translation or Activity in H4 […] Cells. [Related pubchem assays: 1829 (Project Summary), 1814 (Primary HTS)]; assay type: functional
# INS1 = test: INS-1E survival protection against cytokine death – cell-based, luminescence, retest, dose response (AID 449756); assay type: functional; settings: Rattus norvegicus;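 further: cell death triggered by IL-1 beta plus TNF-alpha plus IFN-gamma mixture; protective hits raise ATP signal compared with cytokine alone wells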
# [4] = loss of viability in HepG2 cells – cell-based, CellTiter-Glo, cherry-picked, cytotoxicity control for Shn3 inhibitor project, dose response (AID 624134); assay type: functional
# [5] = Luminescence Cell-Based Dose Confirmation HTS to Identify Activators of 5'UTR Stem-Loop Driven Alpha-Synuclein mRNA Translation in H4 Neuroglioblastoma Cells. [Related pubchem assays: 1829 (Project Summary), 1814 (Primary HTS)]; assay type: functional
# [6] = NIH3T3 cell viability loss – ATP luminescence, mouse fibroblasts, counter-screen, dose response (AID 2010); assay type: functional, cell-based;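 further: cells exposed to compound for about 90 hours before reading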
# H4 = test: Luminescence Cell-Based Dose Response HTS to Identify Activators of 5'UTR Stem-Loop Driven Prion Protein mRNA Translation in H4 Neuroglioblastoma Cells. [Related pubchem assays: 1829 (Project Summary), 1814 (Primary HTS)]; assay type: functional; settings: Homo sapiens
# [7] = target: T3, Zinc finger protein mex-5 (Caenorhabditis elegans, UniProt Q9XUB2); test: potency of MEX-5 RNA-binding blockers – biochemical, C. elegans, fluorescence polarization, dose response (AID 1960)
# T3 sequence (Q9XUB2 whole entry): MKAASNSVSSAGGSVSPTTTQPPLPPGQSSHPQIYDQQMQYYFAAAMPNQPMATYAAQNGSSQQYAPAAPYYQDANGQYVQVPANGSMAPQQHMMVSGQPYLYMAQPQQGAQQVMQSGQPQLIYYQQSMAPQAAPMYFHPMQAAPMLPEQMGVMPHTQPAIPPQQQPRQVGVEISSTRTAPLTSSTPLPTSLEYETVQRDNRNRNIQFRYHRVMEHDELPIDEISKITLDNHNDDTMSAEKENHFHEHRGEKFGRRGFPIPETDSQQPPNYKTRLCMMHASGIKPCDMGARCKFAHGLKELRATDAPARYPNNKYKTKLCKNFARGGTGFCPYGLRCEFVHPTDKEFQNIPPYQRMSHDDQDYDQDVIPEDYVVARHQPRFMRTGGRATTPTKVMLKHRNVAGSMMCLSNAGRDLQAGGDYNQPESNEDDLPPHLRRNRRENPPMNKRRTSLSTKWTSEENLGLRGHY
# [8] = reduction of Shn3 3'UTR-driven luciferase in osteoblasts – cell-based, Clone20 osteoblasts, firefly luciferase, cherry-picked, dose response (AID 624132); assay type: functional;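 further: firefly luciferase luminescence from reporter carrying the Shn3 3'UTR in osteoblasts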
# [9] = target: T4, Endoribonuclease toxin MazF (Escherichia coli K-12, UniProt P0AE70); test: activation of MazEF endoribonuclease cleavage – biochemical, fluorescence, single-stranded RNA substrate, uHTS hits, dose response (AID 588481); assay type: functional
# T4 sequence (P0AE70 whole entry): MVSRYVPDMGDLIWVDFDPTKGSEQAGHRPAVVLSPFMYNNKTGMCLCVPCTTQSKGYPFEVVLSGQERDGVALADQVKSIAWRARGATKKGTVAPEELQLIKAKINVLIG
# [10] = Trypanosoma cruzi growth suppression in host cells – NIH3T3 host cells, beta-gal luminescence, confirmation (AID 2044); assay type: functional, cell-based;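 further: intracellular parasites grown in NIH/3T3 mouse fibroblasts as host cells; luminescent beta-galactosidase reporter signal from transgenic T. cruzi replicating inside host cells; inhibitors lower the luminescence signal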
# [11] = NIH-3T3 fibroblast cytotoxicity, dose response, cytotoxicity control, cell-based, fluorescence, Alamar Blue, secondary assay (AID 2327); assay type: functional;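 further: NIH-3T3 mouse fibroblasts cultured with fluconazole at 8 µg/mL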
# [12] = target: T5, RNA-binding protein pos-1 (Caenorhabditis elegans, UniProt G5EF15); test: disruptors of C. elegans POS-1 RNA interaction – biochemical, fluorescence polarization, dose response (AID 1964);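 further: purified POS-1 fused to maltose binding protein made in E. coli; potency of compounds blocking POS-1 binding to fluorescent RNA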
# T5 sequence (G5EF15 whole entry): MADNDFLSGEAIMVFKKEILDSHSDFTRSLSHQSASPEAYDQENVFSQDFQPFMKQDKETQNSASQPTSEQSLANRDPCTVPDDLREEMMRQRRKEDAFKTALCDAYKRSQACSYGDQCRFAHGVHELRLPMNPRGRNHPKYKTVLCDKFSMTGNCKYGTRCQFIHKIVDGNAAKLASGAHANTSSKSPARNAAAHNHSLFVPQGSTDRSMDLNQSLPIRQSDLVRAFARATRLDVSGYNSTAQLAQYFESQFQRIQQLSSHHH
# [13] = non-specific 3'UTR reporter inhibition in Clone20-Shn3RL – cell-based, Renilla luciferase, cherry-picked, counter-screen for Shn3 inhibitor project, dose response (AID 624133); assay type: functional
# [14] = target: T4, Endoribonuclease toxin MazF; test: substrate-only fluorescence increase artefacts – biochemical, single-stranded RNase substrate, counter-screen for MazEF activator project, dose response (AID 588502); assay type: functional
# [15] = fluconazole-exposed Candida albicans growth modulators – fluorescence, retest, confirmation (AID 2467); assay type: functional, cell-based
# [16] = target: T6, Heat shock factor protein 1 (Mus musculus, UniProt P38532); test: enhancement of HSF1-driven luciferase signal – cell-based, NIH3T3, luminescence, dose retest, confirmation (AID 435004); assay type: functional;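 further: stress induced by proteasome inhibitor MG132 added 30 min after compound; luciferase reporter driven by HSF1 response element in NIH3T3 cells; actives raise luminescence as potentiators of the MG132 stress response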
# T6 sequence (P38532 whole entry): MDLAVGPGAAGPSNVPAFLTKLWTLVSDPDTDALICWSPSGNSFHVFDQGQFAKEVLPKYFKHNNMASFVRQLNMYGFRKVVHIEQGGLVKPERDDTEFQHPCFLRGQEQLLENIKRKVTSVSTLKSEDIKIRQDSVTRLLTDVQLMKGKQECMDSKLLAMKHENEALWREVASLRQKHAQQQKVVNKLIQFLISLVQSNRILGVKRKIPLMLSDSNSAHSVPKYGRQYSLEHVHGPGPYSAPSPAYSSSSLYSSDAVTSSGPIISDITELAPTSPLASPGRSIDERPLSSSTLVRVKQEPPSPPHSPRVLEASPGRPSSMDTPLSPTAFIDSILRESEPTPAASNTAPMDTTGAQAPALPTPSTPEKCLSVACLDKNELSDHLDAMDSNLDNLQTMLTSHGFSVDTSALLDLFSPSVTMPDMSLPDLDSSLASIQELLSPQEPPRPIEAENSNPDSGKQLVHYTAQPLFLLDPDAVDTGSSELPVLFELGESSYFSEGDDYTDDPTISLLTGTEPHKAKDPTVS
# [17] = target: Dual specificity tyrosine-phosphorylation-regulated kinase 1A (Rattus norvegicus, UniProt Q63470); assay type: biochemical, Homo sapiens
# Troponin, cardiac muscle = Troponin, cardiac muscle (Homo sapiens, UniProt P19429+P45379+P63316); test: Fluorescence-based biochemical high throughput dose response assay for activators of the calcium sensitivity of cardiac Regulated Thin Filaments (RTF). [Related pubchem assays (depositor defined):AID493008, AID493018, AID504382, AID504383]; assay type: protein-complex assay
# [18] = target: DNA dC->dU-editing enzyme APOBEC-3G (Homo sapiens, UniProt Q9HC16); assay type: functional;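 further: Dose-response counterscreen measuring inhibition of APOBEC3G DNA deaminase activity, run while confirming APOBEC3A inhibitors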
# Sequence of DNA dC->dU-editing enzyme APOBEC-3G (Q9HC16 whole entry): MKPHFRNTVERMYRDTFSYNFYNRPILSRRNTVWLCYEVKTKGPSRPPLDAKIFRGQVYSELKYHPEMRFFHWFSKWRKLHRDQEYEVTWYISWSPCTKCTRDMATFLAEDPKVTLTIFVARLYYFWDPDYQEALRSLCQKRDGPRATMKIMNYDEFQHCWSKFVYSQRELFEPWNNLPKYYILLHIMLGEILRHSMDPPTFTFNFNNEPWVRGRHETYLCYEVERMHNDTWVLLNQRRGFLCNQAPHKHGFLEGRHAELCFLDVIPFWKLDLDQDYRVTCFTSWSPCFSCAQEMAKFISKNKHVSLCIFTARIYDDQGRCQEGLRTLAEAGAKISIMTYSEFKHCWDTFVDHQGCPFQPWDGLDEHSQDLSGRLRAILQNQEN
# [19] = HIV-1 Vif–A3G interaction blockers – biochemical, TR-FRET, GST-Vif 1-94, biotin-A3G peptide, dose response retest, primary screen (AID 1117319); assay type: functional;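 further: TR-FRET signal of purified GST-Vif binding a biotinylated A3G peptide; inhibitors lower the FRET signal by blocking Vif and A3G binding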
# [20] = target: DNA dC->dU-editing enzyme APOBEC-3A (Homo sapiens, UniProt P31941); test: Dose Response confirmation of small molecule APOBEC3A DNA Deaminase Inhibitors via a fluorescence-based single-stranded DNA deaminase assay. [Related pubchem assays (depositor defined):AID493011, AID493024]; assay type: functional
# Sequence of DNA dC->dU-editing enzyme APOBEC-3A (P31941 whole entry, the tested form may be a part): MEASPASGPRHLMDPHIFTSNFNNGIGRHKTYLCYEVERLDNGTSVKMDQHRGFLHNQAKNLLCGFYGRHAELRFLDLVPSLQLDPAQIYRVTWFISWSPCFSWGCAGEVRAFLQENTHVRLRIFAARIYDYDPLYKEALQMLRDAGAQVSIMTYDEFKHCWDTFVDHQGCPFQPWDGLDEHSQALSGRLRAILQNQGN
# [21] = target: T7, Carboxy-terminal domain RNA polymerase II polypeptide A small phosphatase 1 (Homo sapiens, UniProt Q9GZU7); test: CTDSP1 inhibitors, concentration-response, biochemical, absorbance readout, ultra-high-throughput screen actives (AID 540297); assay type: functional
# T7 sequence (Q9GZU7 whole entry): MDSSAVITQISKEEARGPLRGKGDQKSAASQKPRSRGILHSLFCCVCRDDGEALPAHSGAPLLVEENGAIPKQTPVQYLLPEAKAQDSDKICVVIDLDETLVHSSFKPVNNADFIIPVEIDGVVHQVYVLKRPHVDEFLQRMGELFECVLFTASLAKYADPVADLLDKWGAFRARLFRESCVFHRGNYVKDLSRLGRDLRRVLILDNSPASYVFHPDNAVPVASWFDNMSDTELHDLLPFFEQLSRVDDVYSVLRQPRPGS
# Vero = test: viability of Vero cells under compound – cytotoxicity control for flavivirus capping enzyme inhibitors (AID 588742); assay type: functional; settings: Chlorocebus sabaeus
structure (smiles),measurement,setting,value
NC(=O)NC(CC(=O)NNC(=O)c1ccccn1)c1ccc(Cl)cc1 (stereo not given),IC50,Bcl-2-related protein A1,> 20 µM (inactive)
same,IC50,[1],12.4 µM (active)
same,IC50,[2],19.6 µM (active)
CCn1c(/C=C/c2ccc([N+](=O)[O-])o2)nc2ccccc2c1=O,AC50,HEK293,10.8 µM (active)
same,EC50,[3],> 60 µM (not active)
same,AC50,INS1,3.43 µM (active)
same,AC50,[4],13.6 µM (active)
same,EC50,[5],> 120 µM (not active)
same,EC50,[6],3.14 µM (active)
same,EC50,H4,> 120 µM (not active)
same,EC50,[7],> 150 µM (inconclusive)
same,AC50,[8],4.51 µM (active)
same,EC50,[9],> 99 µM (inactive)
same,EC50,[10],0.213 µM (active)
same,EC50,[11],7.6 µM (inconclusive)
same,EC50,[12],5.46 µM (inconclusive)
same,AC50,[13],8.48 µM (active)
same,EC50,[14],> 99 µM (inactive)
same,EC50,[15],0.682 µM (active)
O=C1NC(=S)S/C1=C/c1ccc(OC(=O)c2ccco2)cc1,EC50,[16],> 260 µM (inactive)
same,EC50,[9],> 99 µM (inactive)
same,AC50,[17],4.1 µM (active)
same,EC50,[14],16.4 µM (active)
O=C(CSCc1ccc([N+](=O)[O-])cc1)N[N-][C+]1CCCCCC1,IC50,Bcl-2-related protein A1,> 20 µM (inactive)
same,IC50,[1],13.7 µM (active)
same,IC50,[2],5.71 µM (active)
CC(=O)C(=CNc1noc(C)c1Br)C(C)=O,EC50,"Troponin, cardiac muscle",> 71.6 µM (inactive)
COc1cccc(/C=N\NC(=O)c2sc(N)nc2C)c1OC,IC50,Bcl-2-related protein A1,> 20 µM (inactive)
same,IC50,[1],0.965 µM (active)
same,IC50,[2],0.947 µM (active)
CNc1ccccc1C(C)(C)c1cc(C)[nH]n1,EC50,"Troponin, cardiac muscle",> 71.5 µM (inactive)
COc1ccc(S(=O)(=O)N(CCc2ccccc2)CC(=O)NC(C)C)cc1,IC50,[18],5.95 µM (active)
same,IC50,[19],> 100 µM (active)
same,IC50,[20],6.35 µM (active)
COc1ccc2c(c1)c(=O)oc1c(C)c(OCc3cc(C(=O)O)oc3C)ccc12,IC50,[21],9.08 µM (active)
same,AC50,[17],1.51 µM (active)
CCCCN1C(=O)NC(=O)/C(=C/c2c[nH]c3ccccc23)C1=O,EC50,[7],29.9 µM (active)
same,EC50,[9],> 99 µM (inactive)
same,EC50,[12],28.4 µM (inconclusive)
same,EC50,[14],> 99 µM (inactive)
COc1cc2c(cc1OC)-c1c(OC)c(OC)cc3c1[C@H](C2)[N+](C)(C)CC3 [GLAUCINE METHIODIDE],IC50,[18],1.66 µM (active)
same,IC50,[20],1.85 µM (active)
Cc1cc(Cl)nc(N)n1,EC50,"Troponin, cardiac muscle",> 71.4 µM (inactive)
CCc1nc(Nc2cccc(O)c2)c2oc3ccccc3c2n1,AC50,[17],9.77 µM (active)
O=C(NCc1ccco1)c1cc(-c2cccs2)nc2ccccc12,CC50,Vero,> 40 µM (active)
